Literature values in patent US20030056236A1, “Model” (priority 2001, published 2003).

Tested on: 5-HIAA levels
Settings: after treatment; for elevate 5-HIAA levels: rat medial prefrontal cortex; for effect on 5-HIAA levels in the striatum: rat striatum

Compound	elevate 5-HIAA levels	effect on 5-HIAA levels in the striatum
Cc1nc2n(c(=O)c1CCN1CCC(c3noc4cc(F)ccc34)CC1)CCCC2 [Risperidone]	elevate	no effect
Cc1nc2sccn2c(=O)c1CCN1CCC(=C(c2ccc(F)cc2)c2ccc(F)cc2)CC1 [ritanserin]	to a lesser extent	no effect
CCNC(=O)N1CCN(CCCC(c2ccc(F)cc2)c2ccc(F)cc2)CC1 [amperozide]	elevate	no effect
